Molecular target: Human RET kinase (Homo sapiens (Human), UniProt P07949, C634W)
Experiment: RET kinase cell-based mechanistic assay (constitutive RET kinase phosphorylation in TT cells)
Settings: 2 h treatment, phospho-RET ELISA
Protocol: RET Kinase Cell-Based Mechanistic Assay
The potency of the compounds of the invention were tested for its ability to inhibit constitutive RET kinase phosphorylation in cell-based assay. TT cells (ATCC CRL-1803), a medullary thyroid cancer cell line with constitutively activated RET kinase, were maintained in 150 cm^2 dishes in F12 Kaighn's medium, 10% fetal bovine serum, 1× Glutamax, 1× non-essential amino acids, 1× Pen/Strep antibiotics at 37° C. in 5% carbon dioxide. 1.0E5 TT cells/well were plated in a 96-well cell culture plate and allowed to adhere overnight. […] Plates were washed 4× with 200 μL of 1×PBS; 0.05% Tween-20, 100 μL of TMB (3,3′,5,5″-tetramethylbenzidine) substrate (Cell Signaling #7004) was added, incubated for 10 minutes at 37° C., 100 μL of Stop solution (Cell Signaling #7002) was added and absorbance read on a spectrophotometer at 450 nm. […]

Chain of Human RET kinase (P07949 29-1114 C634W): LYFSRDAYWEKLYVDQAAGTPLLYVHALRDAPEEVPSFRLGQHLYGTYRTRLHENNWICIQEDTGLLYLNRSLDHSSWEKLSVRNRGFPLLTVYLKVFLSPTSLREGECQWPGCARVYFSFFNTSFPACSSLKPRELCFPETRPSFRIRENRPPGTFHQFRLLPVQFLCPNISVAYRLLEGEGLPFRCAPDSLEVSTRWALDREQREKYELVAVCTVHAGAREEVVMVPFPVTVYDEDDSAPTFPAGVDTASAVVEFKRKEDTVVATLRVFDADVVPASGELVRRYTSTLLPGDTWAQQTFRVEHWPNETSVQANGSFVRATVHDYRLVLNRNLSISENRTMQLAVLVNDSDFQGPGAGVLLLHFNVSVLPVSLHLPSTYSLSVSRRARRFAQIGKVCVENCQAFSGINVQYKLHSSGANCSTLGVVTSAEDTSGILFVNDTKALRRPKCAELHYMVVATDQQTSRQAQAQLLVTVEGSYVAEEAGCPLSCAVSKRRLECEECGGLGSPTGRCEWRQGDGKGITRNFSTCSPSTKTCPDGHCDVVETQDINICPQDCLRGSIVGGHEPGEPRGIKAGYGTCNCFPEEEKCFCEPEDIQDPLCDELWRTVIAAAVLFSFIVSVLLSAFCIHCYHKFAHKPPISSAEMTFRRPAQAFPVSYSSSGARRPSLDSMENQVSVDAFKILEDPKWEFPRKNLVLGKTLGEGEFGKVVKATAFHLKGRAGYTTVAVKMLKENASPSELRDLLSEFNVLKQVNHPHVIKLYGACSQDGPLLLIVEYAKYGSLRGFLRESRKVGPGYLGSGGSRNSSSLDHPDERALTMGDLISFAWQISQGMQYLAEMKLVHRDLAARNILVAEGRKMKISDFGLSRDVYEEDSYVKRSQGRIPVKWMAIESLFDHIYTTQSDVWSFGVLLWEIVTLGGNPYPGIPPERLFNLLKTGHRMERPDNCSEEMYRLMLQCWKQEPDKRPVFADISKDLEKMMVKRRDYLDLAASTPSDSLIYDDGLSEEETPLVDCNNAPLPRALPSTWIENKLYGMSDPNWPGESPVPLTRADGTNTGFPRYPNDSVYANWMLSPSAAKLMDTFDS

IC50 [nM]	SMILES
10 to 100	CCOc1cc(=O)[nH]cc1-c1ccc(CC(=O)Nc2cc(OCCN(C)C)cc(C(F)(F)F)c2)c(F)c1 [Example 2, N-(3-(2-(dimethylamino)ethoxy)-5-(trifluoromethyl)phenyl)-2-(4-(4-ethoxy-6-oxo-1,6-dihydropyridin-3-yl)-2-fluorophenyl)acetamide]
10 to 100	CCOc1cc(=O)[nH]cc1-c1ccc(CC(=O)Nc2cc(C(=O)NCCN(C)C)cc(C(F)(F)F)c2)c(F)c1 [Example 1, N-(2-(dimethylamino)ethyl)-3-(2-(4-(4-ethoxy-6-oxo-1,6-dihydropyridin-3-yl)-2-fluorophenyl)acetamido)-5-(trifluoromethyl)benzamide]
